ChEMBL document CHEMBL1671662, “In vitro activities of telavancin and six comparator agents against anaerobic bacterial isolates” (2009)

Experiments:
Prevotella intermedia [1] = experiment: Antibacterial activity against Prevotella intermedia by CLSI M11-A6 agar dilution method; assay type: functional
Holdemania filiformis = experiment: Antibacterial activity against Holdemania filiformis by CLSI M11-A6 agar dilution method; assay type: functional
Phocaeicola vulgatus = experiment: Antibacterial activity against Bacteroides vulgatus by CLSI M11-A6 agar dilution method; assay type: functional
Prevotella buccae = experiment: Antibacterial activity against Prevotella buccae by CLSI M11-A6 agar dilution method; assay type: functional; conditions: Segatella buccae
Prevotella disiens = experiment: Antibacterial activity against Prevotella P disiens by CLSI M11-A6 agar dilution method; assay type: functional
Actinomyces naeslundii = experiment: Antibacterial activity against Actinomyces naeslundii by CLSI M11-A6 agar dilution method; assay type: functional
[2] = test system: Prevotella melaninogenica; experiment: Antibacterial activity against Prevotella melaninogenica by CLSI M11-A6 agar dilution method; assay type: functional
Fusobacterium varium = experiment: Antibacterial activity against Fusobacterium varium by CLSI M11-A6 agar dilution method; assay type: functional
[3] = test system: Bifidobacterium adolescentis; experiment: Antibacterial activity against Bifidobacterium adolescentis by CLSI M11-A6 agar dilution method; assay type: functional
Clostridium tertium = experiment: Antibacterial activity against Clostridium tertium by CLSI M11-A6 agar dilution method; assay type: functional
[Clostridium] innocuum = Antibacterial activity against Clostridium innocuum by CLSI M11-A6 agar dilution method; assay type: functional
Bacteroides fragilis = experiment: Antibacterial activity against Bacteroides fragilis by CLSI M11-A6 agar dilution method; assay type: functional
[4] = test system: Streptococcus constellatus; experiment: Antibacterial activity against Streptococcus constellatus by CLSI M11-A6 agar dilution method; assay type: functional
Bifidobacterium longum = experiment: Antibacterial activity against Bifidobacterium longum by CLSI M11-A6 agar dilution method; assay type: functional
[5] = test system: Catenibacterium mitsuokai; experiment: Antibacterial activity against Catenibacterium mitsuokai by CLSI M11-A6 agar dilution method; assay type: functional
Flavonifractor plautii = experiment: Antibacterial activity against Clostridium orbiscindens by CLSI M11-A6 agar dilution method; assay type: functional
Clostridium bartlettii = experiment: Antibacterial activity against Clostridium bartlettii by CLSI M11-A6 agar dilution method; assay type: functional; conditions: Intestinibacter bartlettii
Prevotella denticola = experiment: Antibacterial activity against Prevotella P denticola by CLSI M11-A6 agar dilution method; assay type: functional
Odoribacter splanchnicus = experiment: Antibacterial activity against Bacteroides splanchnicus by CLSI M11-A6 agar dilution method; assay type: functional
Anaerococcus tetradius = experiment: Antibacterial activity against Anaerococcus tetradius by CLSI M11-A6 agar dilution method; assay type: functional
Clostridium glycolicum = experiment: Antibacterial activity against Clostridium glycolicum by CLSI M11-A6 agar dilution method; assay type: functional; conditions: Terrisporobacter glycolicus
[6] = Antibacterial activity against Bifidobacterium infantis by CLSI M11-A6 agar dilution method; assay type: functional, Bifidobacterium longum subsp. infantis; conditions: Bifidobacterium longum
Collinsella aerofaciens = experiment: Antibacterial activity against Colinsella aerofaciens by CLSI M11-A6 agar dilution method; assay type: functional
Thomasclavelia ramosa = experiment: Antibacterial activity against Clostridium ramosum by CLSI M11-A6 agar dilution method; assay type: functional
Prevotella intermedia [7] = experiment: Antibacterial activity against Prevotella P intermedia by CLSI M11-A6 agar dilution method; assay type: functional
[8] = test system: Paraclostridium bifermentans; experiment: Antibacterial activity against Clostridium bifermentans by CLSI M11-A6 agar dilution method; assay type: functional
Ruminococcus sp. = experiment: Antibacterial activity against Ruminococcus sp. by CLSI M11-A6 agar dilution method; assay type: functional
Fusobacterium mortiferum = experiment: Antibacterial activity against Fusobacterium mortiferum by CLSI M11-A6 agar dilution method; assay type: functional
[9] = test system: Ruminococcus flavefaciens; experiment: Antibacterial activity against Ruminococcus flavefaciens by CLSI M11-A6 agar dilution method; assay type: functional
Clostridium scindens = experiment: Antibacterial activity against Clostridium scindens by CLSI M11-A6 agar dilution method; assay type: functional
Clostridium = experiment: Antibacterial activity against Clostridium hypermegas by CLSI M11-A6 agar dilution method; assay type: functional
[10] = test system: Clostridium paraputrificum; experiment: Antibacterial activity against Clostridium paraputrificum by CLSI M11-A6 agar dilution method; assay type: functional
Anaerococcus prevotii = experiment: Antibacterial activity against Anaerococcus prevotii by CLSI M11-A6 agar dilution method; assay type: functional
Clostridium spiroforme = experiment: Antibacterial activity against Clostridium spiroforme by CLSI M11-A6 agar dilution method; assay type: functional; conditions: Thomasclavelia spiroformis
Clostridium perfringens = experiment: Antibacterial activity against Clostridium perfringens by CLSI M11-A6 agar dilution method; assay type: functional
[11] = test system: Streptococcus intermedius; experiment: Antibacterial activity against Streptococcus intermedius by CLSI M11-A6 agar dilution method; assay type: functional
Clostridium butyricum = experiment: Antibacterial activity against Clostridium butyricum by CLSI M11-A6 agar dilution method; assay type: functional
Clostridium disporicum = experiment: Antibacterial activity against Clostridium disporicum by CLSI M11-A6 agar dilution method; assay type: functional
Bifidobacterium breve = experiment: Antibacterial activity against Bifidobacterium breve by CLSI M11-A6 agar dilution method; assay type: functional

CCCCCCCCCC(=O)N[C@@H](Cc1c[nH]c2ccccc12)C(=O)N[C@H](CC(N)=O)C(=O)N[C@@H](CC(=O)O)C(=O)N[C@@H]1C(=O)NCC(=O)N[C@@H](CCCN)C(=O)N[C@@H](CC(=O)O)C(=O)N[C@H](C)C(=O)N[C@@H](CC(=O)O)C(=O)NCC(=O)N[C@H](CO)C(=O)N[C@@H]([C@H](C)CC(=O)O)C(=O)N[C@@H](CC(=O)c2ccccc2N)C(=O)O[C@@H]1C
16 µg/mL: MIC90 ([Clostridium] innocuum)
1 µg/mL: MIC50 (Holdemania filiformis) | MIC50 (Actinomyces naeslundii) | MIC50 [3] | MIC50 (Clostridium tertium) | MIC50 (Bifidobacterium longum) | MIC50 [5] | MIC50 (Flavonifractor plautii) | MIC50 (Clostridium bartlettii) | MIC50 (Anaerococcus tetradius) | MIC50 (Clostridium glycolicum) | MIC50 [6] | MIC50 (Collinsella aerofaciens) | MIC50 [8] | MIC50 (Ruminococcus sp.) | MIC50 [9] | MIC50 (Clostridium scindens) | MIC50 (Clostridium) | MIC50 [10] | MIC50 (Anaerococcus prevotii) | MIC50 (Clostridium spiroforme) | MIC90 (Clostridium perfringens) | MIC50 (Clostridium butyricum) | MIC50 (Clostridium disporicum) | MIC50 (Bifidobacterium breve)
64 µg/mL: MIC50 (Thomasclavelia ramosa) | MIC90 (Thomasclavelia ramosa)
4 µg/mL: MIC90 [4] | MIC90 (Anaerococcus tetradius) | MIC90 (Ruminococcus sp.) | MIC90 (Anaerococcus prevotii) | MIC90 [11]
8 µg/mL: MIC90 (Clostridium tertium) | MIC50 ([Clostridium] innocuum) | MIC90 (Flavonifractor plautii) | MIC90 (Clostridium bartlettii) | MIC90 (Clostridium glycolicum) | MIC90 [8] | MIC90 (Clostridium scindens) | MIC90 (Clostridium) | MIC90 [10] | MIC90 (Clostridium spiroforme) | MIC90 (Clostridium butyricum) | MIC90 (Clostridium disporicum)
32 µg/mL: MIC90 (Holdemania filiformis) | MIC90 (Actinomyces naeslundii) | MIC90 [3] | MIC90 (Bifidobacterium longum) | MIC90 [5] | MIC90 [6] | MIC90 (Collinsella aerofaciens) | MIC90 (Bifidobacterium breve)
2 µg/mL: MIC50 [4] | MIC90 [9] | MIC50 [11]
> 128 µg/mL: MIC (Prevotella intermedia [1]) | MIC50 (Prevotella intermedia [1]) | MIC90 (Prevotella intermedia [1]) | MIC (Phocaeicola vulgatus) | MIC50 (Phocaeicola vulgatus) | MIC90 (Phocaeicola vulgatus) | MIC (Prevotella buccae) | MIC50 (Prevotella buccae) | MIC90 (Prevotella buccae) | MIC (Prevotella disiens) | MIC50 (Prevotella disiens) | MIC90 (Prevotella disiens) | MIC [2] | MIC50 [2] | MIC90 [2] | MIC (Fusobacterium varium) | MIC50 (Fusobacterium varium) | MIC90 (Fusobacterium varium) | MIC (Bacteroides fragilis) | MIC50 (Bacteroides fragilis) | MIC90 (Bacteroides fragilis) | MIC (Prevotella denticola) | MIC50 (Prevotella denticola) | MIC90 (Prevotella denticola) | MIC (Odoribacter splanchnicus) | MIC50 (Odoribacter splanchnicus) | MIC90 (Odoribacter splanchnicus) | MIC (Prevotella intermedia [7]) | MIC50 (Prevotella intermedia [7]) | MIC90 (Prevotella intermedia [7]) | MIC (Fusobacterium mortiferum) | MIC50 (Fusobacterium mortiferum) | MIC90 (Fusobacterium mortiferum)
0.5 µg/mL: MIC50 (Clostridium perfringens)

CCC[C@@H]1C[C@@H](C(=O)N[C@@H]([C@H]2O[C@H](SC)[C@H](O)[C@@H](O)[C@H]2O)[C@H](C)Cl)N(C)C1 [CLINDAMYCIN]
8 µg/mL: MIC90 (Thomasclavelia ramosa)
1 µg/mL: MIC90 (Holdemania filiformis) | MIC90 (Actinomyces naeslundii) | MIC50 (Fusobacterium varium) | MIC90 [3] | MIC50 ([Clostridium] innocuum) | MIC90 (Bifidobacterium longum) | MIC90 [5] | MIC90 [6] | MIC90 (Collinsella aerofaciens) | MIC50 (Fusobacterium mortiferum) | MIC90 (Bifidobacterium breve)
2 µg/mL: MIC90 [9] | MIC90 (Clostridium perfringens)
4 µg/mL: MIC90 (Clostridium tertium) | MIC90 (Flavonifractor plautii) | MIC90 (Clostridium bartlettii) | MIC90 (Clostridium glycolicum) | MIC50 (Thomasclavelia ramosa) | MIC90 [8] | MIC90 (Clostridium scindens) | MIC90 [10] | MIC90 (Clostridium spiroforme) | MIC90 (Clostridium butyricum) | MIC90 (Clostridium disporicum)
> 128 µg/mL: MIC50 (Phocaeicola vulgatus) | MIC90 (Phocaeicola vulgatus) | MIC90 ([Clostridium] innocuum) | MIC90 (Bacteroides fragilis) | MIC90 (Odoribacter splanchnicus) | MIC90 (Anaerococcus tetradius) | MIC90 (Ruminococcus sp.) | MIC90 (Anaerococcus prevotii)
0.5 µg/mL: MIC50 (Bacteroides fragilis) | MIC90 [4] | MIC50 (Clostridium perfringens) | MIC90 [11]
32 µg/mL: MIC90 (Fusobacterium varium) | MIC90 (Fusobacterium mortiferum)
≤ 0.12 µg/mL: MIC (Prevotella intermedia [1]) | MIC50 (Prevotella intermedia [1]) | MIC90 (Prevotella intermedia [1]) | MIC50 (Holdemania filiformis) | MIC (Prevotella buccae) | MIC50 (Prevotella buccae) | MIC90 (Prevotella buccae) | MIC (Prevotella disiens) | MIC50 (Prevotella disiens) | MIC90 (Prevotella disiens) | MIC50 (Actinomyces naeslundii) | MIC [2] | MIC50 [2] | MIC90 [2] | MIC50 [3] | MIC50 (Bifidobacterium longum) | MIC50 [5] | MIC (Prevotella denticola) | MIC50 (Prevotella denticola) | MIC90 (Prevotella denticola) | MIC50 (Odoribacter splanchnicus) | MIC50 [6] | MIC50 (Collinsella aerofaciens) | MIC (Prevotella intermedia [7]) | MIC50 (Prevotella intermedia [7]) | MIC90 (Prevotella intermedia [7]) | MIC50 [9] | MIC50 (Bifidobacterium breve)
